Measured values published in patent US20230142338A1, “THIOPHENYL DERIVATIVES USEFUL FOR MODULATING NUCLEIC ACID SPLICING” (REMIX THERAPEUTICS INC., priority 2020, published 2023).
Structures can show the parent of a compound that is named as a salt.

What was measured:
Assay type in all cases: cell-based
HTT CJ mRNA [1] = assay: Splicing assay (RT-qPCR): decrease in HTT canonical junction (CJ) mRNA; conditions: A673 or K562 cells, 24 hours treatment; concentration having 50% response in CJ mRNA decrease
Experimental: (§1) Compounds described herein were used to modulate RNA transcript abundance in cells. The expression of a target mRNA was measured by detecting the formation of an exon-exon junction in the canonical transcript (CJ). A compound mediated exon-inclusion event was detected by observing an increase in formation of a new junction with an alternative exon (AJ). Real-time qPCR assays were used to detect these splicing switches and interrogate the potency of various compounds towards different target genes. A high-throughput real time quantitative PCR (RT-qPCR) assay was developed to measure these two isoforms of the mRNA (CJ and AJ) for an exemplary gene, HTT, together with a control housekeeping gene, GAPDH or GUSB or PPIA, used for normalization. Briefly, the A673 or K562 cell line was treated with various compounds described herein (e.g., compounds of Formula (I)). After treatment, the levels of the HTT mRNA targets were determined from each sample of cell lysate by cDNA synthesis followed by qPCR.
(§2) The A673 cell line was cultured in DMEM with 10% FBS. Cells were diluted with full growth media and plated in a 96-well plate (15,000 cells in 100 ul media per well). The plate was incubated at 37° C. with 5% CO2 for 24 hours to allow cells to adhere. An 11-point 3-fold serial dilution of the compounds was made in DMSO then diluted in media in an intermediate plate. Compounds were transferred from the intermediate plate to the cell plate with the top dose at a final concentration of 10 uM in the well. Final DMSO concentration was kept at or below 0.25%. The cell plate was returned to the incubator at 37° C. with 5% CO2 for an additional 24 hours.
(§3) The K562 cell line was cultured in IMDM with 10% FBS. For K562, cells were diluted with full growth media and plated in either a 96-well plate (50,000 cells in 50 uL media per well) or a 384-well plate (8,000-40,000 cells in 45 uL media per well). An 11-point 3-fold serial dilution of the compounds were made in DMSO then diluted in media in an intermediate plate. Compound was transferred from the intermediate plate to the cell plate with the top dose at a final concentration of 10 uM in the well. Final DMSO concentration was kept at or below 0.25%. Final volume was 100 uL for 96-well plate and 50 uL for 384-well plate. The cell plate was then placed in an incubator at 37° C. with 5% CO2 for 24 hours.
(§4) The cells were then gently washed with 50 uL-100 uL cold PBS before proceeding to addition of lysis buffer. 30 uL-50 uL of room temperature lysis buffer with DNAse I (and optionally RNAsin) was added to each well. Cells were shaken/mixed thoroughly at room temperature for 5-10 minutes for lysis to take place and then 3 uL-5 uL of room temperature stop solution was added and wells were shaken/mixed again. After 2-5 minutes, the cell lysate plate was transferred to ice for RT-qPCR reaction setup. The lysates could also be frozen at −80° C. for later use.
(§5) In some cases, a direct lysis buffer was used. An appropriate volume of 3× lysis buffer (10 mM Tris, 150 mM NaCl, 1.5%-2.5% Igepal and 0.1-1 U/uL RNAsin, pH 7.4) was directly added to either K562 or A673 cells in media and mixed by pipetting 3 times. The plates were then incubated at room temperature with shaking/rocking for 20-50 minutes to allow for lysis to take place. After this time, the cell lysate plate was transferred to ice to set up for the RT-qPCR reactions. The lysates could also be frozen at −80° C. for later use.
(§6) To set up 10 uL RT-qPCR reactions, cell lysates were transferred to 384-well qPCR plates containing the master mix according to the table below. The plates were sealed, gently vortexed, and spun down before the run. The volumes were adjusted accordingly in some instances where the reaction was carried in 20 uL. The table below summarizes the components of the RT-qPCR reactions:
(§7) The RT-qPCR reaction was performed using a QuantStudio (ThermoFisher) under the following fast cycling conditions. […]

Target C CJ mRNA = assay: Gene panel canonical junction qPCR assay: Target C; conditions: Table 3, concentration having 50% response in CJ decrease, read-out: Target C IC50 (decrease in CJ mRNA levels)
Experimental: as §1, §2, §3, §4, §5, §6, §7

HTT AJ mRNA = assay: Splicing assay (RT-qPCR): increase in HTT alternative junction (AJ) mRNA; conditions: A673 or K562 cells, 24 hours treatment; concentration having 50% response in AJ mRNA increase
Experimental: as §1, §2, §3, §4, §5, §6, §7

SMN2 CJ mRNA = assay: Gene panel canonical junction qPCR assay: SMN2; conditions: Table 3, concentration having 50% response in CJ decrease, read-out: SMN2 IC50 (decrease in CJ mRNA levels)
Experimental: as §1, §2, §3, §4, §5, §6, §7

HTT CJ mRNA [2] = assay: Gene panel canonical junction qPCR assay: HTT; conditions: Table 3, concentration having 50% response in CJ decrease, read-out: HTT IC50 (decrease in CJ mRNA levels)
Experimental: as §1, §2, §3, §4, §5, §6, §7

Compound	IC50 (Target C CJ mRNA) [µM]	IC50 (SMN2 CJ mRNA) [µM]	IC50 (HTT CJ mRNA [2]) [µM]	AC50 (HTT CJ mRNA [1]) [µM]	AC50 (HTT AJ mRNA) [µM]
Cc1cn2cc(NC(=O)c3sc(N(C)C4CCN(C)CC4)cc3F)cc(F)c2n1 [Compound 150, 3-fluoro-N-[8-fluoro-2-methylimidazo[1,2-a]pyridin-6-yl]-5-[methyl(1-methylpiperidin-4-yl)amino]thiophene-2-carboxamide]	1 to 10	1 to 10	1 to 10	1 to 10	> 10
CC1CN(c2cc(F)c(C(=O)Nc3ccc4cn(C)nc4c3)s2)CCN1 (stereo not shown) [Compound 162, 3-fluoro-N-(2-methylindazol-6-yl)-5-(3-methylpiperazin-1-yl)thiophene-2-carboxamide]	> 0.01	> 0.01	> 0.01	> 10	> 10
CC1CN(c2cc(F)c(C(=O)Nc3cc(F)c4cn(C)nc4c3)s2)CCN1 (stereo not shown) [Compound 163, 3-fluoro-N-(4-fluoro-2-methylindazol-6-yl)-5-(3-methylpiperazin-1-yl)thiophene-2-carboxamide]	< 0.1	> 0.01	> 0.01	> 10	> 10
Cc1nc2c(F)cc(NC(=O)c3sc(N4CCNC(C)C4)cc3F)cc2o1 (stereo not shown) [Compound 164, 3-fluoro-N-(4-fluoro-2-methyl-1,3-benzoxazol-6-yl)-5-(3-methylpiperazin-1-yl)thiophene-2-carboxamide]	0.1 to 1	0.1 to 1	1 to 10	1 to 10	1 to 10
Cc1nc2c(F)cc(NC(=O)c3sc(N4CCNC(C)C4)cc3F)cc2s1 (stereo not shown) [Compound 165, 3-fluoro-N-(4-fluoro-2-methyl-1,3-benzothiazol-6-yl)-5-(3-methylpiperazin-1-yl)thiophene-2-carboxamide]	0.1 to 1	1 to 10	> 0.01	> 10	> 10
Cc1cn2cc(NC(=O)c3sc(N4CCNC(C)C4)cc3F)c(C)cc2n1 (stereo not shown) [Compound 166, N-[2,7-dimethylimidazo[1,2-a]pyridin-6-yl]-3-fluoro-5-(3-methylpiperazin-1-yl)thiophene-2-carboxamide]	> 0.01	1 to 10	> 0.01	> 10	> 10
Cc1cn2cc(NC(=O)c3sc(N4CCNC(C)C4)cc3F)ncc2n1 (stereo not shown) [Compound 167, 3-fluoro-N-[2-methylimidazo[1,2-a]pyrazin-6-yl]-5-(3-methylpiperazin-1-yl)thiophene-2-carboxamide]	> 0.01	0.1 to 1	> 0.01	> 10	> 10
Cc1cn2nc(NC(=O)c3sc(N4CCNC(C)C4)cc3F)nc2c(C)n1 (stereo not shown) [Compound 169, hydrochloride]	> 0.01	> 0.01	> 0.01	> 10	> 10
Cc1cn2cc(NC(=O)c3sc(N4CCNC(C)C4)cc3F)cc(C)c2n1 (stereo not shown) [Compound 172, N-[2,8-dimethylimidazo[1,2-a]pyridin-6-yl]-3-fluoro-5-(3-methylpiperazin-1-yl)thiophene-2-carboxamide]	> 0.01	1 to 10	> 0.01	> 10	> 10
COc1cc(C2CCNCC2)sc1C(=O)Nc1cc(F)c2nc(C)cn2c1 [Compound 173, N-[8-fluoro-2-methylimidazo [1,2-a]pyridin-6-yl]-3-methoxy-5-(piperidin-4-yl)thiophene-2-carboxamide]	> 0.01	> 0.01	> 0.01	> 10	> 10

Further lines, with some results ahead:

IC50 (Target C CJ mRNA) [µM]	IC50 (SMN2 CJ mRNA) [µM]	IC50 (HTT CJ mRNA [2]) [µM]	Compound	AC50 (HTT CJ mRNA [1]) [µM]	AC50 (HTT AJ mRNA) [µM]
1 to 10	0.1 to 1	0.1 to 1	Cc1cn2cc(NC(=O)c3ccc(C4CCNCC4)s3)cc(F)c2n1 [Compound 174, N-[8-fluoro-2-methylimidazo[1,2-a]pyridin-6-yl]-5-(piperidin-4-yl) thiophene-2-carboxamide]	1 to 10	1 to 10
> 0.01	0.1 to 1	1 to 10	Cc1cn2cc(NC(=O)c3sc(C4CCNCC4)cc3F)c(C)cc2n1 [Compound 178, N-[2,7-dimethylimidazo[1,2-a]pyridin-6-yl]-3-fluoro-5-(piperidin-4-yl)thiophene-2-carboxamide]	1 to 10	1 to 10
1 to 10	1 to 10	0.1 to 1	Cc1cn2cc(NC(=O)c3sc(C4CCNCC4)cc3F)ncc2n1 [Compound 179, 3-fluoro-N-[2-methylimidazo[1,2-a]pyrazin-6-yl]-5-(piperidin-4-yl)thiophene-2-carboxamide]	0.1 to 1	1 to 10
1 to 10	< 0.1	0.1 to 1	Cc1cn2cc(NC(=O)c3sc(C4CCNCC4)cc3F)cc(C)c2n1 [Compound 180, N-[2,8-dimethylimidazo[1,2-a]pyridin-6-yl]-3-fluoro-5-(piperidin-4-yl)thiophene-2-carboxamide]	0.1 to 1	1 to 10
1 to 10	< 0.1	0.1 to 1	Cc1cn2cc(NC(=O)c3sc(C4CCNCC4)cc3F)cc(Cl)c2n1 [Compound 181, N-[8-chloro-2-methylimidazo[1,2-a]pyridin-6-yl]-3-fluoro-5-(piperidin-4-yl)thiophene-2-carboxamide]	0.1 to 1	0.1 to 1
> 0.01	> 0.01	> 0.01	Cn1cc2ccc(NC(=O)c3sc(C4CCNCC4)cc3F)cc2n1 [Compound 182, 3-fluoro-N-(2-methylindazol-6-yl)-5-(piperidin-4-yl)thiophene-2-carboxamide]	> 10	> 10
> 0.01	> 0.01	> 0.01	Cn1cc2c(F)cc(NC(=O)c3sc(C4CCNCC4)cc3F)cc2n1 [Compound 183, 3-fluoro-N-(4-fluoro-2-methylindazol-6-yl)-5-(piperidin-4-yl)thiophene-2-carboxamide]	> 10	> 10
0.1 to 1	< 0.1	0.1 to 1	Cc1nc2c(F)cc(NC(=O)c3sc(C4CCNCC4)cc3F)cc2o1 [Compound 184, 3-fluoro-N-(4-fluoro-2-methyl-1,3-benzoxazol-6-yl)-5-(piperidin-4-yl)thiophene-2-carboxamide]	0.1 to 1	0.1 to 1
1 to 10	< 0.1	0.1 to 1	Cc1nc2c(F)cc(NC(=O)c3sc(C4CCNCC4)cc3F)cc2s1 [Compound 185, 3-fluoro-N-(4-fluoro-2-methyl-1,3-benzothiazol-6-yl)-5-(piperidin-4-yl)-thiophene-2-carboxamide]	0.1 to 1	1 to 10
> 0.01	> 0.01	> 0.01	Cc1cn2cc(NC(=O)c3cc(Cl)c(N4CCNC(C)C4)s3)cc(F)c2n1 (stereo not shown) [Compound 187]	> 10	> 10
